Source: ChEMBL document CHEMBL1201862, “PubChem BioAssay data set” (2004)
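Following 48 hours of exposure in 96-well plates, responses at five concentrations were used to interpolate endpoints linearly. GI50: concentration for 50% inhibition of growth.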 Calls of active or inactive are those of the source. Rule as the data show it: active = GI50 up to about 1.1 µM and inactive = higher.

Legend:
Assay in all cases: growth of human tumour cells (NCI), 48 h
RXF 393 = tested on: RXF 393
OVCAR-3 = tested on: OVCAR-3
HCC 2998 = tested on: HCC 2998
COLO 205 = tested on: COLO 205
PC-3 = tested on: PC-3
ACHN = tested on: ACHN
T47D = tested on: T47D
SN12C = tested on: SN12C
SNB-75 = tested on: SNB-75
MDA-MB-231 = tested on: MDA-MB-231
SK-MEL-2 = tested on: SK-MEL-2
U-251 = tested on: U-251
HL-60 = tested on: HL-60
NCI-H226 = tested on: NCI-H226
OVCAR-8 = tested on: OVCAR-8
SF-539 = tested on: SF-539
NCI/ADR-RES = tested on: NCI/ADR-RES
NCI-H23 = tested on: NCI-H23
HOP-62 = tested on: HOP-62

SMILES | GI50 (RXF 393) | GI50 (OVCAR-3) | GI50 (HCC 2998) | GI50 (COLO 205) | GI50 (PC-3) | GI50 (ACHN) | GI50 (T47D) | GI50 (SN12C) | GI50 (SNB-75) | GI50 (MDA-MB-231) | GI50 (SK-MEL-2) | GI50 (U-251) | GI50 (HL-60) | GI50 (NCI-H226) | GI50 (OVCAR-8) | GI50 (SF-539) | GI50 (NCI/ADR-RES) | GI50 (NCI-H23) | GI50 (HOP-62)
CC(=O)OC(=C(C#N)C#N)c1nccnc1C(=O)O | > 100 µM (inactive) | > 100 µM (inactive) | > 100 µM (inactive) | > 100 µM (inactive) | > 100 µM (inactive) | > 100 µM (inactive) | > 100 µM (inactive) | > 100 µM (inactive) | 95.7 µM (inactive) | > 100 µM (inactive) | > 100 µM (inactive) | > 100 µM (inactive) | > 100 µM (inactive) | > 100 µM (inactive) | > 100 µM (inactive) | > 100 µM (inactive) | > 100 µM (inactive) | > 100 µM (inactive) | –
O=C(c1cc2c(c3ccccc13)NCCN=C2C(F)(F)F)C(F)(F)F | 23.3 µM (inactive) | 26 µM (inactive) | 17.5 µM (inactive) | – | 14.6 µM (inactive) | 22.8 µM (inactive) | 21.4 µM (inactive) | – | 21.6 µM (inactive) | 20.2 µM (inactive) | 18.7 µM (inactive) | 13.5 µM (inactive) | 16.3 µM (inactive) | 18.5 µM (inactive) | 34.5 µM (inactive) | 20.1 µM (inactive) | 27 µM (inactive) | 40.6 µM (inactive) | 19.7 µM (inactive)
CN(CCCNC(=O)c1nn(-c2ccccc2)c2c1Cc1ccccc1-2)CCCNC(=O)c1nn(-c2ccccc2)c2c1Cc1ccccc1-2 | 1.75 µM (inactive) | 1.71 µM (inactive) | 1.42 µM (inactive) | 1.45 µM (inactive) | 1.69 µM (inactive) | 1.73 µM (inactive) | 1.92 µM (inactive) | 1.76 µM (inactive) | 1.36 µM (inactive) | 1.76 µM (inactive) | 1.69 µM (inactive) | 1.7 µM (inactive) | 0.603 µM (active) | – | 1.73 µM (inactive) | 1.59 µM (inactive) | 1.63 µM (inactive) | 1.57 µM (inactive) | 1.58 µM (inactive)
O=C(/N=C1/OC(CN2CCOCC2)CN1C(=O)Nc1ccccc1)Nc1ccccc1 (stereo not drawn) | > 100 µM (inactive) | – | > 100 µM (inactive) | > 100 µM (inactive) | > 100 µM (inactive) | > 100 µM (inactive) | 21.4 µM (inactive) | > 100 µM (inactive) | 54.7 µM (inactive) | > 100 µM (inactive) | > 100 µM (inactive) | > 100 µM (inactive) | > 100 µM (inactive) | > 100 µM (inactive) | > 100 µM (inactive) | – | > 100 µM (inactive) | > 100 µM (inactive) | > 100 µM (inactive)
O=C(O)c1cccc(NC(C(=O)c2ccccc2)c2ccccc2)c1 (stereo not drawn) | > 100 µM (inactive) | > 100 µM (inactive) | > 100 µM (inactive) | > 100 µM (inactive) | > 100 µM (inactive) | > 100 µM (inactive) | > 100 µM (inactive) | > 100 µM (inactive) | – | > 100 µM (inactive) | > 100 µM (inactive) | > 100 µM (inactive) | > 100 µM (inactive) | – | > 100 µM (inactive) | > 100 µM (inactive) | > 100 µM (inactive) | > 100 µM (inactive) | > 100 µM (inactive)
Cn1c2ccc([N+](=O)[O-])cc2c(=O)c2c(O)cc(O)cc21 | 25.7 µM (inactive) | 52.4 µM (inactive) | > 100 µM (inactive) | > 100 µM (inactive) | > 100 µM (inactive) | 33.1 µM (inactive) | 45.2 µM (inactive) | 31.4 µM (inactive) | 4.15 µM (inactive) | 57.3 µM (inactive) | > 10 µM (inactive) | 15.7 µM (inactive) | > 100 µM (inactive) | 53.2 µM (inactive) | 13.2 µM (inactive) | 24.3 µM (inactive) | 17 µM (inactive) | – | –
c1ccc(COc2nc3cc(C45CC6CC(CC(C6)C4)C5)ccc3[nH]2)cc1 | 11.3 µM (inactive) | 22.9 µM (inactive) | 9.68 µM (inactive) | 4.01 µM (inactive) | 9.06 µM (inactive) | 14.6 µM (inactive) | 2.83 µM (inactive) | 18.5 µM (inactive) | 29.6 µM (inactive) | 21.8 µM (inactive) | 11.2 µM (inactive) | 8.87 µM (inactive) | 9.38 µM (inactive) | 12 µM (inactive) | 18 µM (inactive) | – | 7.45 µM (inactive) | 6.3 µM (inactive) | 24.4 µM (inactive)
COC(=O)N1N=C(c2ccccc2)C1c1ccccc1 (stereo not drawn) | 31.7 µM (inactive) | 37.9 µM (inactive) | 32.1 µM (inactive) | 27 µM (inactive) | 26.9 µM (inactive) | – | 25.4 µM (inactive) | 42.4 µM (inactive) | 36 µM (inactive) | 24.6 µM (inactive) | 34.5 µM (inactive) | 42.7 µM (inactive) | 27.2 µM (inactive) | 21.8 µM (inactive) | 27.5 µM (inactive) | 22.9 µM (inactive) | 23.2 µM (inactive) | 24.8 µM (inactive) | –
CC(=O)NC1C(OCc2ccccc2)OC(CO)C(O)C1OCC(=O)NC(C(=O)NC(CCC(=O)NCCCCCC(=O)Nc1ccc2c(c1)CN1C(=O)c3ccccc3C1=N2)C(N)=O)C(C)C (stereo not drawn) | 21.8 µM (inactive) | 67.6 µM (inactive) | 35.6 µM (inactive) | 47 µM (inactive) | 28.5 µM (inactive) | 46.3 µM (inactive) | 22.3 µM (inactive) | > 100 µM (inactive) | 22 µM (inactive) | 25.5 µM (inactive) | 27.1 µM (inactive) | 18.8 µM (inactive) | > 100 µM (inactive) | – | 26.4 µM (inactive) | 19.1 µM (inactive) | 45.8 µM (inactive) | 35.3 µM (inactive) | 20.3 µM (inactive)
Cc1cccc(NC(=O)CCl)c1 | 8.49 µM (inactive) | 6.4 µM (inactive) | > 10 µM (inactive) | > 10 µM (inactive) | > 10 µM (inactive) | > 10 µM (inactive) | > 10 µM (inactive) | 7.67 µM (inactive) | – | 5.93 µM (inactive) | > 10 µM (inactive) | 2.24 µM (inactive) | 3.56 µM (inactive) | 7.36 µM (inactive) | 9.53 µM (inactive) | 9.31 µM (inactive) | > 10 µM (inactive) | 4.26 µM (inactive) | > 10 µM (inactive)
CCCCCCc1cc(C=O)sc1-c1ccc(-c2sc(-c3ccc(-c4ccc(-c5cc(CCCCCC)c(-c6ccc(-c7sc(C=O)cc7CCCCCC)s6)s5)s4)s3)cc2CCCCCC)s1 | > 100 µM (inactive) | > 100 µM (inactive) | > 100 µM (inactive) | > 100 µM (inactive) | > 100 µM (inactive) | > 100 µM (inactive) | > 100 µM (inactive) | > 100 µM (inactive) | – | > 100 µM (inactive) | > 100 µM (inactive) | > 100 µM (inactive) | > 100 µM (inactive) | 28.4 µM (inactive) | > 100 µM (inactive) | > 100 µM (inactive) | > 100 µM (inactive) | > 100 µM (inactive) | > 100 µM (inactive)
